Data: paper PMC5421464, “Characterization of the single-subunit oligosaccharyltransferase STT3A from Trypanosoma brucei using synthetic peptides and lipid-linked oligosaccharide analogs” (Glycobiology, 2017)
Marks after values point to notes of the source that are not given here. Ends that are not written are not given here. * marks the point of attachment. 5FAM = O=C1OC2(c3ccc(O)cc3Oc3cc(O)ccc32)c2ccc(C(=O)*)cc21

Experiments:
Type in all cases: biochemical
TbSTT3A [1] = biological target: T1, TbSTT3A (Trypanosoma brucei, UniProt Q57W34); experiment: Michaelis-Menten kinetics of the LLO analogs; details: for kcat (LLO analog): 20 nM TbSTT3A, 10 µM acceptor peptide, varying LLO analog concentration
T1 sequence (Q57W34 1-801): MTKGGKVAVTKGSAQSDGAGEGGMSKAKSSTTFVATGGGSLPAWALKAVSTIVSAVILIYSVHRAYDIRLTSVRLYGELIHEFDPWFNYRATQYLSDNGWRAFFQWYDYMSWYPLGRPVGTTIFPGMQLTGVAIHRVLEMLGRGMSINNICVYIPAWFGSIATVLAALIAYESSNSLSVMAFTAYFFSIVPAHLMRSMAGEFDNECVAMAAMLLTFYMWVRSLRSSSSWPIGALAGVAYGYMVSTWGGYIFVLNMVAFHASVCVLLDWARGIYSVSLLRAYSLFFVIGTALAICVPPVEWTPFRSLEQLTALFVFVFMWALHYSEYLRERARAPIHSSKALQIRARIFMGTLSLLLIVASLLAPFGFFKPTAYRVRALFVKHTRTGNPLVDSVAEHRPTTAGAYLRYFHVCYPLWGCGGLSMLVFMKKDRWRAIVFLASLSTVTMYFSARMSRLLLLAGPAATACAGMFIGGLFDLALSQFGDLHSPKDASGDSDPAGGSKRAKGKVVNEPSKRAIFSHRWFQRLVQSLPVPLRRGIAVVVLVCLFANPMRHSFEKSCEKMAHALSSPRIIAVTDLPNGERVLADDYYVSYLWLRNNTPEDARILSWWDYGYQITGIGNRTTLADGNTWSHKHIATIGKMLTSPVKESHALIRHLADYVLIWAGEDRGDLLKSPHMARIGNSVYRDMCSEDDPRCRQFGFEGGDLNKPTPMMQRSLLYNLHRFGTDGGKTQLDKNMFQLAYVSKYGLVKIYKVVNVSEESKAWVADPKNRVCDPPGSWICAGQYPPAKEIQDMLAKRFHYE
Description: Fig. 3. (A) Structure of the LLO analogs synthesized (1a) (S)-Citronellyl-PP-Chitobiose, C10; (1b) farnesyl-PP-chitobiose, C15; (1c) (S)-NerylCitronellyl-PP-chitobiose, C20; (1d) (S)-farnesylCitronellyl-PP-chitobiose, C25. (B) Kinetic analysis of synthetic LLO analogs. Glycosylation experiments were performed with 20 nM purified TbSTT3A, 10 µM […], 10 mM MnCl2, 150 mM NaCl, 20 mM Hepes pH 7.5, 0.035% DDM, 0.007% CHS and different concentrations of synthetic LLO analogs. Data points reflect the mean of 3 separate measurements. Error bars indicate standard deviations. Data were fitted by nonlinear regression according to the Michaelis–Menten formula using PRISM software. This figure is available in black and white in print and in color at Glycobiology online.
For Michaelis–Menten kinetics of the LLO analogs, reaction mixtures containing 20 nM TbSTT3A protein, 10 µM peptide P11, 10 mM MnCl2, 150 mM NaCl, 20 mM Hepes pH 7.5, 0.035% DDM and 0.007% CHS were incubated with different concentrations of LLO analogs (10–900 µM, for 1a; 2–60 µM, for 1b; 1–50 µM, for 1c and 1–20 µM, for 1d). Samples were taken at different time points and turnover rates of the reactions were determined as before. Data were fitted by nonlinear regression according to the Michaelis–Menten formula using PRISM software.

TbSTT3A [2] = biological target: T1, TbSTT3A; experiment: In vitro glycosylation assay, turnover rate of acceptor peptides (Tricine SDS-PAGE fluorescence)
Description: (§1) Fig. 2. Optimization of the acceptor peptide sequence. (A) Synthetic acceptor peptides are shown in single letter code. The acceptor asparagine (zero position of the sequon) is indicated in red. Glycosylation experiments were performed and the fluorescently labeled substrate (G0) and product (G1) were quantified following Tricine SDS-PAGE analysis. (B) Turnover rates after fitting the time points by linear regression using PRISM. Error bars indicate standard error of the fitting. (C) Kinetic analysis of substrate peptides: glycosylation experiments were performed with 20 nM purified TbSTT3A, 50 µM farnesyl-PP-chitobiose, 10 mM MnCl2, 150 mM NaCl, 20 mM Hepes pH 7.5, 0.035% DDM, 0.007% CHS and different concentrations of peptides varying from 2 to 60 µM. Data points reflect the mean of three separate measurements. Error bars indicate standard deviations. Data were fitted by nonlinear regression according to the Michaelis–Menten formula using PRISM. This figure is available in black and white in print and in color at Glycobiology online.
Reaction mixtures contained 20 nM purified TbSTT3A protein, 50µM farnesyl-PP-GlcNAc or farnesyl-PP-chitobiose, 10 mM MnCl2, 150 mM NaCl, 20 mM Hepes pH 7.5, 0.035% DDM, 0.007% CHS and 20 µM of the peptide. Reactions were incubated at 30°C. Samples were taken at different time points and reactions were stopped by the addition of 4X SDS Laemmli buffer. Samples were diluted 200-fold prior to analysis by Tricine SDS-PAGE consisting of a 16% resolving gel with 6 M urea, a 10% spacer gel and a 4% stacking gel ([Schägger 2006]). Fluorescent bands for peptide and glycopeptide were visualized by using a Typhoon Trio Plus imager (GE Healthcare) with excitation set at 488 nm and using a 526 nm SP emission filter. The amount of formed glycopeptide was determined from band intensities of fluorescence gel scans (ImageJ) ([Gerber et al. 2013]). Turnover rate determination was performed by fitting of the data to linear regression using PRISM software.
Supplementary Figure 2: Glycosylation Assays with farnesyl-PP-GlcNAc. In vitro glycosylation experiments were performed with 20nM purified TbStt3A purified protein, 50µM Farnesyl-PP-GlcNAc or Farnesyl-PP-GlcNac2, 10 mM MnCl2, 150 mM NaCl, 20 mM Hepes pH 7.5, 0.035% DDM, 0.007% CHS and 10 µM of the peptide P1.

TbSTT3A [3] = biological target: T1, TbSTT3A; experiment: Michaelis-Menten kinetics of the peptides; details: 20 nM TbSTT3A, 50 µM farnesyl-PP-chitobiose, peptide 2-60 µM, 30°C
Description: as §1
For Michaelis–Menten kinetics of the peptides, reaction mixtures containing 20 nM TbSTT3A protein, 50 µM farnesyl-PP-chitobiose, 10 mM MnCl2, 150 mM NaCl, 20 mM Hepes pH 7.5, 0.035% DDM and 0.007% CHS were incubated with varying concentrations (2–60 µM) of peptides P11, P13 and P14. Samples were taken at different time points and the turnover rate of the reactions were determined as before. Data were fitted by nonlinear regression according to the Michaelis–Menten formula using PRISM software.

TbSTT3A [4] = biological target: T1, TbSTT3A; experiment: Inhibition analysis with LLO competitive inhibitors; details: 20 nM TbSTT3A, 10 µM peptide P11, inhibitor 1-2500 µM preincubated 5 min, 15 µM farnesyl-PP-chitobiose 1b
Description: Fig. 5. (A) Structure of the LLO inhibitors synthesized (34b) farnesyl-PP-C-chitobiose, C15; (34d) (S)-farnesylCitronellyl-PP-C-chitobiose, C25. (B) Kinetic analysis of synthetic LLO inhibitors. Glycosylation experiments were performed with 20 nM TbSTT3A protein, 10 µM peptide P11, 10 mM MnCl2, 150 mM NaCl, 20 mM Hepes pH 7.5, 0.035% DDM and 0.007% CHS. Samples were incubated with LLO competitive inhibitors (1–2500 µM) for 5 min before adding 15 µM of farnesyl-PP-chitobiose, 1b. Data points reflect the mean of three separate measurements. Error bars indicate standard deviations. Data were fitted by nonlinear regression using PRISM software. This figure is available in black and white in print and in color at Glycobiology online.
For inhibition analysis, reaction mixtures containing 20 nM TbSTT3A protein, 10 µM peptide P11, 10 mM MnCl2, 150 mM NaCl, 20 mM Hepes pH 7.5, 0.035% DDM and 0.007% CHS were incubated with different concentrations of LLO competitive inhibitors (1–2500 µM) for 5 min at 30°C. Reactions were started with addition of 15 µM of farnesyl-PP-chitobiose, 1b. Samples were taken at different time points and turnover rates of the reactions were determined as before. Data were fitted to nonlinear regression and IC50 was determined using PRISM software.

CC(=O)N[C@H]1[C@@H](OP(=O)(O)OP(=O)(O)OCC[C@@H](C)CC/C=C(/C)CC/C=C(\C)CC/C=C(\C)CCC=C(C)C)O[C@H](CO)[C@@H](O[C@@H]2O[C@H](CO)[C@@H](O)[C@H](O)[C@H]2NC(C)=O)[C@@H]1O [1d, P1-2-acetamido-O-(2-acetamido-2-deoxy-β-D-glucopyranosyl)-(1-4)-2-deoxy-α-D-glucopyranosyl P2-(S,6Z,10E,14E)-3,7,11,15,19-pentamethylicosa-6,10,14,18-tetraen-1-yl diphosphate]
kcat (LLO analog) (TbSTT3A [1]): 16 ± 1 pep/min

CC(=O)N[C@H]1[C@@H](OP(=O)(O)OP(=O)(O)OCC[C@@H](C)CCC=C(C)C)O[C@H](CO)[C@@H](O[C@@H]2O[C@H](CO)[C@@H](O)[C@H](O)[C@H]2NC(C)=O)[C@@H]1O [1a, P1-2-acetamido-O-(2-acetamido-2-deoxy-β-D-glucopyranosyl)-(1-4)-2-deoxy-α-D-glucopyranosyl P2-(S)-3,7-dimethyloct-6-en-1-yl diphosphate]
kcat (LLO analog) (TbSTT3A [1]): 9.1 ± 0.5 pep/min

5CF-GSDANYTY (5FAM-GSDANYTY) [P11, 5-carboxyfluorescein labeled acceptor peptide]
Glycosylation of acceptor peptide (result in words) (TbSTT3A [2]; farnesyl-PP-chitobiose 1b donor): highest turnover rate | kcat (substrate peptide) (TbSTT3A [3]): 37 ± 5^a pep/min

CC(=O)N[C@@H]1[C@@H](O)[C@H](O[C@@H]2O[C@H](CO)[C@@H](O)[C@H](O)[C@H]2NC(C)=O)[C@@H](CO)O[C@@H]1CP(=O)(O)OP(=O)(O)OC/C=C(\C)CC/C=C(\C)CCC=C(C)C [34b, (((2S,3R,4R,5S,6R)-3-acetamido-5-(((2S,3R,4R,5S,6R)-3-acetamido-4,5-dihydroxy-6-(hydroxymethyl)tetrahydro-2H-pyran-2-yl)oxy)-4-hydroxy-6-(hydroxymethyl)tetrahydro-2H-pyran-2-yl)methyl)phosphonic ((2E,6E)-3,7,11-trimethyldodeca-2,6,10-trien-1-ylphosphoric) anhydride]
IC50 (TbSTT3A [4]): 167 ± 14 µM

CC(=O)NC1C(OC2C(CO)OC(OP(=O)(O)OP(=O)(O)OCCC(C)CCC=C(C)CCC=C(C)CCC=C(C)C)C(NC(C)=O)C2O)OC(CO)C(O)C1O [1c, P1-2-acetamido-O-(2-acetamido-2-deoxy-β-D-glucopyranosyl)-(1-4)-2-deoxy-α-D-glucopyranosyl P2-(3S,6Z,10Z)-3,7,11,15-tetramethylhexadeca-6,10,14-trien-1-yl diphosphate]
kcat (LLO analog) (TbSTT3A [1]): 23 ± 1 pep/min

5CF-GSDANYTYTQ (5FAM-GSDANYTYTQ) [P14, 5-carboxyfluorescein labeled acceptor peptide, P11 elongated at the C-terminus]
Increase in glycosylation turnover (TbSTT3A [2]; from the initial DANYTK to GSDANYTYTQ): about 3 fold | kcat (substrate peptide) (TbSTT3A [3]): 28 ± 1 pep/min | Km (TbSTT3A [3]; read-out: KM (substrate peptide)): 28 ± 3 µM

CC(=O)N[C@@H]1[C@@H](O)[C@H](O[C@@H]2O[C@H](CO)[C@@H](O)[C@H](O)[C@H]2NC(C)=O)[C@@H](CO)O[C@@H]1CP(=O)(O)OP(=O)(O)OCC[C@@H](C)CC/C=C(/C)CC/C=C(\C)CC/C=C(\C)CCC=C(C)C [34d, (((2S,3R,4R,5S,6R)-3-acetamido-5-(((2S,3R,4R,5S,6R)-3-acetamido-4,5-dihydroxy-6-(hydroxymethyl)tetrahydro-2H-pyran-2-yl)oxy)-4-hydroxy-6-(hydroxymethyl)tetrahydro-2H-pyran-2-yl)methyl)phosphonic ((S,6Z,10E,14E)-3,7,11,15,19-pentamethylicosa-6,10,14,18-tetraen-1-ylphosphoric) anhydride]
IC50 (TbSTT3A [4]): 26 ± 3 µM

CC(=O)N[C@H]1[C@@H](OP(=O)(O)OP(=O)(O)OC/C=C(\C)CC/C=C(\C)CCC=C(C)C)O[C@H](CO)[C@@H](O[C@@H]2O[C@H](CO)[C@@H](O)[C@H](O)[C@H]2NC(C)=O)[C@@H]1O [1b, P1-2-acetamido-O-(2-acetamido-2-deoxy-β-D-glucopyranosyl)-(1-4)-2-deoxy-α-D-glucopyranosyl P2-(2E,6E)-3,7,11-Trimethyldodeca-2,6,10-trien-1-yl diphosphate]
kcat (LLO analog) (TbSTT3A [1]): 12 ± 1 pep/min | Apparent affinity lower compared to 1d (TbSTT3A [1]; from KM values, Table II): 2 fold
